Source: ChEMBL document CHEMBL1201862, “PubChem BioAssay data set” (2004)
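Step 1: Grow cells in 96-well plates. Step 2: Expose to compound for 48 hours at 5 concentrations. Step 3: Interpolate endpoints linearly; if unreached, use highest concentration. GI50 is the concentration that inhibits growth by half.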 The source made the active and inactive calls. Rule as the data show it: active = GI50 up to about 1.1 µM and inactive = higher.

Assays:
Experiment in all cases: NCI anticancer screen, dose series, 48 h
[1] = tested on: OVCAR-4
[2] = tested on: ACHN
[3] = tested on: SNB-19
[4] = tested on: UACC-62
[5] = tested on: EKVX
[6] = tested on: UACC-257
[7] = tested on: OVCAR-5
[8] = tested on: IGROV-1
[9] = tested on: NCI-H522
[10] = tested on: UO-31
[11] = tested on: HOP-92
[12] = tested on: HL-60
[13] = tested on: NCI-H226
[14] = tested on: M14
[15] = tested on: OVCAR-3
[16] = tested on: LOX IMVI
[17] = tested on: SF-295
[18] = tested on: SK-OV-3
[19] = tested on: K562
[20] = tested on: RPMI-8226

Measured: GI50

CC1(C)CC(=O)C2=C(C1)N(c1ccccc1)C1(O)C=CC(O)=C3C(=O)c4ccccc4C(=O)C321 (stereo not given)
inactive: [1] 14.7 µM | [2] 21.1 µM | [3] 21.7 µM | [4] 19.2 µM | [5] 55.6 µM | [6] 33.8 µM | [7] 42.8 µM | [8] 26 µM | [9] 20.3 µM | [10] 19.1 µM | [11] 24.1 µM | [12] 37.2 µM | [13] 18.7 µM | [14] 40.5 µM | [15] 37.8 µM | [16] 21 µM | [17] 30 µM | [18] 88.9 µM | [19] 14 µM | [20] 22.3 µM

C[C@]12CCc3nn(-c4ccccc4)nc3C1CC[C@@H]1C2CC[C@]2(C)C(=O)CCC12 (stereo not given in full)
inactive: [1] > 100 µM | [2] > 100 µM | [3] > 100 µM | [4] > 100 µM | [5] > 100 µM | [6] > 100 µM | [7] > 100 µM | [8] > 100 µM | [9] > 100 µM | [10] > 100 µM | [11] > 100 µM | [12] > 100 µM | [13] > 100 µM | [14] > 100 µM | [15] > 100 µM | [16] 82.2 µM | [17] > 100 µM | [18] > 100 µM | [19] 54.3 µM | [20] > 100 µM
